Experimental data as given in publication PMC5218480 (PLoS ONE, 2017).

Test system: MV-4-11 cells
Assay: Gene expression microarray analysis (Affymetrix PrimeView) and GSEA
Type: cell-based, human
Set-up: RFU PODN (11730768_x_at) / Fold change /veh PODN (11730768_x_at) / RFU LINC00158 (11744669_a_at) / Fold change /veh LINC00158 (11744669_a_at) / RFU DUSP10 (11751237_a_at) / Fold change /veh DUSP10 (11751237_a_at) / RFU ID3 (11757404_x_at) / Fold change /veh ID3 (11757404_x_at) / RFU PLEKHG5 (11737974_s_at) / Fold change /veh PLEKHG5 (11737974_s_at) / RFU LRRC4B (11730491_at) / Fold change /veh LRRC4B (11730491_at) / RFU GIMAP4 (11747438_a_at) / Fold change /veh GIMAP4 (11747438_a_at) / RFU KRT8 (11758183_x_at) / Fold change /veh KRT8 (11758183_x_at) / RFU CNN1 (11734310_a_at) / Fold change /veh CNN1 (11734310_a_at) / RFU VPS37D (11726825_at) / Fold change /veh VPS37D (11726825_at) / RFU C10orf10 (11716522_x_at) / Fold change /veh C10orf10 (11716522_x_at) / RFU KIR2DL2 /// KIR2DL4 /// KIR2DL5A /// KIR2DL5B /// KIR2DS1 /// KIR2DS2 /// KIR2DS3 /// KIR2DS4 /// KIR3DL3 /// KIR3DL3 /// KIR3DS1 (11738374_at) / Fold change /veh KIR2DL2 /// KIR2DL4 /// KIR2DL5A /// KIR2DL5B /// KIR2DS1 /// KIR2DS2 /// KIR2DS3 /// KIR2DS4 /// KIR3DL3 /// KIR3DL3 /// KIR3DS1 (11738374_at) / RFU C1QL1 (11718748_at) / Fold change /veh C1QL1 (11718748_at) / RFU TMPRSS4 (11747572_a_at) / Fold change /veh TMPRSS4 (11747572_a_at) / RFU HAMP (11756126_x_at) / Fold change /veh HAMP (11756126_x_at) / RFU RNFT2 (11725882_a_at) / Fold change /veh RNFT2 (11725882_a_at) / RFU NR4A2 (11747474_a_at) / Fold change /veh NR4A2 (11747474_a_at) / RFU ABCC12 (11746883_a_at) / Fold change /veh ABCC12 (11746883_a_at) / RFU TMEM136 (11760407_x_at) / Fold change /veh TMEM136 (11760407_x_at) / RFU CLDN22 /// WWC2 (11732394_at) / Fold change /veh CLDN22 /// WWC2 (11732394_at) / RFU HLA-DPB1 (11760878_x_at) / Fold change /veh HLA-DPB1 (11760878_x_at) / RFU SPINT1 (11716480_a_at) / Fold change /veh SPINT1 (11716480_a_at) / RFU GAP43 (11754022_s_at) / Fold change /veh GAP43 (11754022_s_at) / RFU A4GNT (11735810_at) / Fold change /veh A4GNT (11735810_at) / RFU PRB3 (11715151_x_at) / Fold change /veh PRB3 (11715151_x_at) / RFU TUBB4B (11761932_at) / Fold change /veh TUBB4B (11761932_at) / RFU CAPN14 (11732068_a_at) / Fold change /veh CAPN14 (11732068_a_at) / RFU TMCC2 (11721928_a_at) / Fold change /veh TMCC2 (11721928_a_at) / RFU IRGQ (11745062_a_at) / Fold change /veh IRGQ (11745062_a_at) / RFU FAM174B (11720279_a_at) / Fold change /veh FAM174B (11720279_a_at) / RFU TMPRSS4 (11748680_a_at) / Fold change /veh TMPRSS4 (11748680_a_at) / RFU FAM212B (11763350_a_at) / Fold change /veh FAM212B (11763350_a_at) / RFU PLEKHG5 (11743358_a_at) / Fold change /veh PLEKHG5 (11743358_a_at) / RFU ZSCAN30 (11745921_a_at) / Fold change /veh ZSCAN30 (11745921_a_at) / RFU CMKLR1 (11741424_a_at) / Fold change /veh CMKLR1 (11741424_a_at) / RFU LOC101060620 /// MAPK8IP1 (11723275_at) / Fold change /veh LOC101060620 /// MAPK8IP1 (11723275_at) / RFU SPTSSB (11747773_x_at) / Fold change /veh SPTSSB (11747773_x_at) / RFU PRSS12 (11739890_at) / Fold change /veh PRSS12 (11739890_at) / RFU BIN1 (11741810_x_at) / Fold change /veh BIN1 (11741810_x_at) / RFU WNT11 (11732464_a_at) / Fold change /veh WNT11 (11732464_a_at) / RFU C10orf10 (11716521_a_at) / Fold change /veh C10orf10 (11716521_a_at) / RFU C5orf56 (11738089_at) / Fold change /veh C5orf56 (11738089_at) / RFU CYB561 (11721691_x_at) / Fold change /veh CYB561 (11721691_x_at) / RFU ANKRD19P (11752326_a_at) / Fold change /veh ANKRD19P (11752326_a_at) / RFU OR2T12 /// OR2T33 /// OR2T8 (11738714_s_at) / Fold change /veh OR2T12 /// OR2T33 /// OR2T8 (11738714_s_at) / RFU VCAN (11748164_a_at) / Fold change /veh VCAN (11748164_a_at) / RFU JSRP1 (11732532_at) / Fold change /veh JSRP1 (11732532_at) / RFU KRTAP10-11 (11738290_x_at) / Fold change /veh KRTAP10-11 (11738290_x_at) / RFU MYO3A (11730013_a_at) / Fold change /veh MYO3A (11730013_a_at) / RFU EBF3 (11725865_a_at) / Fold change /veh EBF3 (11725865_a_at) / RFU CAMK2N1 (11719241_x_at) / Fold change /veh CAMK2N1 (11719241_x_at) / RFU C5orf56 (11738088_a_at) / Fold change /veh C5orf56 (11738088_a_at) / RFU OLFML3 (11715873_a_at) / Fold change /veh OLFML3 (11715873_a_at) / RFU LOC100653217 /// NTM (11731650_a_at) / Fold change /veh LOC100653217 /// NTM (11731650_a_at) / RFU MAPK11 (11762145_a_at) / Fold change /veh MAPK11 (11762145_a_at) / RFU FIZ1 (11724087_x_at) / Fold change /veh FIZ1 (11724087_x_at) / RFU OASL (11726364_x_at) / Fold change /veh OASL (11726364_x_at) / RFU SOX15 (11748057_x_at) / Fold change /veh SOX15 (11748057_x_at) / RFU CD79A (11719716_a_at) / Fold change /veh CD79A (11719716_a_at) / RFU HIST1H1D (11736915_at) / Fold change /veh HIST1H1D (11736915_at) / RFU CASKIN2 (11723855_a_at) / Fold change /veh CASKIN2 (11723855_a_at) / RFU LOC730098 (11760151_x_at) / Fold change /veh LOC730098 (11760151_x_at) / RFU OR4N2 (11742367_at) / Fold change /veh OR4N2 (11742367_at) / RFU PRRT2 (11749266_a_at) / Fold change /veh PRRT2 (11749266_a_at) / RFU SNX32 (11753110_a_at) / Fold change /veh SNX32 (11753110_a_at) / RFU CDHR5 (11726645_a_at) / Fold change /veh CDHR5 (11726645_a_at) / RFU RCAN1 (11760418_a_at) / Fold change /veh RCAN1 (11760418_a_at) / RFU FAM167A (11723789_a_at) / Fold change /veh FAM167A (11723789_a_at) / RFU FAM26E (11764081_at) / Fold change /veh FAM26E (11764081_at) / RFU ISYNA1 (11749810_s_at) / Fold change /veh ISYNA1 (11749810_s_at) / RFU ACY1 (11761880_at) / Fold change /veh ACY1 (11761880_at) / RFU 11764098_at / Fold change /veh 11764098_at / RFU SAMD14 (11745864_x_at) / Fold change /veh SAMD14 (11745864_x_at) / RFU NPB (11741838_a_at) / Fold change /veh NPB (11741838_a_at) / RFU TMPRSS6 (11731388_a_at) / Fold change /veh TMPRSS6 (11731388_a_at) / RFU KRTAP10-2 (11738614_at) / Fold change /veh KRTAP10-2 (11738614_at) / RFU ARHGAP8 /// PRR5-ARHGAP8 (11727945_x_at) / Fold change /veh ARHGAP8 /// PRR5-ARHGAP8 (11727945_x_at) / RFU KRTAP5-7 /// NADSYN1 (11734609_at) / Fold change /veh KRTAP5-7 /// NADSYN1 (11734609_at) / RFU RASL12 (11751679_a_at) / Fold change /veh RASL12 (11751679_a_at) / RFU CDKN2B (11736163_a_at) / Fold change /veh CDKN2B (11736163_a_at) / RFU PRF1 (11729649_at) / Fold change /veh PRF1 (11729649_at) / RFU, ZNF638 /// ZNF638-IT1 / Fold change vs veh, ZNF638 /// ZNF638-IT1 / RFU, PANK3 / Fold change vs veh, PANK3 / RFU, SH3YL1 / Fold change vs veh, SH3YL1 / RFU, ZEB2 / Fold change vs veh, ZEB2 / RFU, NRIP1 / Fold change vs veh, NRIP1 / RFU, PTTG1IP / Fold change vs veh, PTTG1IP / RFU, CAPN2 / Fold change vs veh, CAPN2 / RFU, MED14 / Fold change vs veh, MED14 / RFU, SNORA58 / Fold change vs veh, SNORA58 / RFU, C1orf63 / Fold change vs veh, C1orf63 / RFU, LRRFIP1 / Fold change vs veh, LRRFIP1 / RFU, NDUFAF7 / Fold change vs veh, NDUFAF7 / RFU, SLC12A2 / Fold change vs veh, SLC12A2 / RFU, IBTK / Fold change vs veh, IBTK / RFU, ESF1 / Fold change vs veh, ESF1 / Fold change vs veh, TMEM50B / RFU, TAOK1 / Fold change vs veh, TAOK1 / RFU, ACBD3 / Fold change vs veh, ACBD3 / RFU, TMA16 / Fold change vs veh, TMA16 / RFU, RWDD3 / Fold change vs veh, RWDD3 / RFU, BCAT1 / Fold change vs veh, BCAT1 / RFU, EDEM3 / Fold change vs veh, EDEM3 / RFU, TMEM33 / Fold change vs veh, TMEM33 / RFU, WDR75 / Fold change vs veh, WDR75 / RFU, AHCTF1 / Fold change vs veh, AHCTF1 / RFU, TFRC / Fold change vs veh, TFRC / RFU, ZDHHC17 / Fold change vs veh, ZDHHC17 / RFU, NOM1 / Fold change vs veh, NOM1 / RFU, ARL8B / Fold change vs veh, ARL8B / RFU, ZBTB11 / Fold change vs veh, ZBTB11 / RFU, TAMM41 / Fold change vs veh, TAMM41 / RFU, KIAA1704 /// LOC100996395 / Fold change vs veh, KIAA1704 /// LOC100996395 / RFU, ING1 / Fold change vs veh, ING1 / RFU, TRMT61B / Fold change vs veh, TRMT61B / RFU, FUBP3 / Fold change vs veh, FUBP3 / RFU, TP53 / Fold change vs veh, TP53 / RFU, TNKS2 / Fold change vs veh, TNKS2 / RFU, ZFP14 / Fold change vs veh, ZFP14 / RFU, ACTR2 / Fold change vs veh, ACTR2 / RFU, PPP3R1 / Fold change vs veh, PPP3R1 / RFU, PIK3R1 / Fold change vs veh, PIK3R1 / RFU, HNRNPA1 / Fold change vs veh, HNRNPA1 / RFU, RNF170 / Fold change vs veh, RNF170 / RFU, ZNF28 / Fold change vs veh, ZNF28 / RFU, RNGTT / Fold change vs veh, RNGTT / RFU, OGT / Fold change vs veh, OGT / RFU, BRD1 / Fold change vs veh, BRD1 / RFU, MARS / Fold change vs veh, MARS / RFU, ZNF655 / Fold change vs veh, ZNF655 / RFU, FAHD1 / Fold change vs veh, FAHD1 / RFU, BDP1 / Fold change vs veh, BDP1 / RFU, LRRCC1 / Fold change vs veh, LRRCC1 / RFU, ARID1A / Fold change vs veh, ARID1A / RFU, ZNF146 / Fold change vs veh, ZNF146 / RFU, ZNF330 / Fold change vs veh, ZNF330 / RFU, GPN3 / Fold change vs veh, GPN3 / RFU, C9orf123 / Fold change vs veh, C9orf123 / RFU, N4BP2L2 / Fold change vs veh, N4BP2L2 / RFU, ARFIP1 / Fold change vs veh, ARFIP1 / RFU, FAM179B / Fold change vs veh, FAM179B / RFU, BCL10 / Fold change vs veh, BCL10 / RFU, UHRF1BP1L / Fold change vs veh, UHRF1BP1L / RFU, BET1 / Fold change vs veh, BET1 / RFU, CNOT2 / Fold change vs veh, CNOT2 / RFU, ZNF268 / Fold change vs veh, ZNF268 / Fold change vs veh, ZNF507 / RFU, DGCR2 / Fold change vs veh, DGCR2 / RFU, WDSUB1 / Fold change vs veh, WDSUB1 / Fold change vs veh, HSP90B1 /// MIR3652 / RFU, ADSS / Fold change vs veh, ADSS / RFU, GK / Fold change vs veh, GK / RFU, ZNF148 / Fold change vs veh, ZNF148 / RFU, TAF9 / Fold change vs veh, TAF9 / RFU, SLC1A5 / Fold change vs veh, SLC1A5 / RFU, SLMO2 / Fold change vs veh, SLMO2 / RFU, ABCC4 / Fold change vs veh, ABCC4 / RFU, LOC101060439 /// RAP1B / Fold change vs veh, LOC101060439 /// RAP1B / RFU, RFX7 / Fold change vs veh, RFX7 / RFU, GTPBP10 / Fold change vs veh, GTPBP10 / RFU, CNEP1R1 / Fold change vs veh, CNEP1R1 / RFU, BIVM-ERCC5 /// ERCC5 / Fold change vs veh, BIVM-ERCC5 /// ERCC5 / RFU, ILF3 / Fold change vs veh, ILF3 / RFU 11762660_at / Fold change /veh 11762660_at / RFU VCAN (11757783_s_at) / Fold change /veh VCAN (11757783_s_at) / RFU DDX43 (11728927_at) / Fold change /veh DDX43 (11728927_at) / RFU KRT8 (11758188_x_at) / Fold change /veh KRT8 (11758188_x_at) / RFU NKD1 (11759106_at) / Fold change /veh NKD1 (11759106_at) / RFU SRD5A1 (11742802_a_at) / Fold change /veh SRD5A1 (11742802_a_at) / RFU TPSAB1 /// TPSB2 (11721975_s_at) / Fold change /veh TPSAB1 /// TPSB2 (11721975_s_at) / RFU GSTM3 (11746129_a_at) / Fold change /veh GSTM3 (11746129_a_at) / RFU IL23R (11737362_x_at) / Fold change /veh IL23R (11737362_x_at) / RFU TMEM51 (11727254_a_at) / Fold change /veh TMEM51 (11727254_a_at) / RFU PIWIL2 (11732686_x_at) / Fold change /veh PIWIL2 (11732686_x_at) / RFU ORM1 (11744905_x_at) / Fold change /veh ORM1 (11744905_x_at) / RFU CCDC152 (11743942_at) / Fold change /veh CCDC152 (11743942_at) / RFU ECM1 (11717891_a_at) / Fold change /veh ECM1 (11717891_a_at) / RFU IL23R (11748794_a_at) / Fold change /veh IL23R (11748794_a_at) / RFU TNFAIP8L3 (11732012_x_at) / Fold change /veh TNFAIP8L3 (11732012_x_at) / RFU MBOAT4 (11741988_at) / Fold change /veh MBOAT4 (11741988_at) / RFU 11764193_at / Fold change /veh 11764193_at / RFU TMEM53 (11763286_at) / Fold change /veh TMEM53 (11763286_at) / RFU MAGEB2 (11727129_at) / Fold change /veh MAGEB2 (11727129_at) / RFU TMEM200A (11744735_a_at) / Fold change /veh TMEM200A (11744735_a_at) / RFU CCDC152 (11751479_a_at) / Fold change /veh CCDC152 (11751479_a_at) / RFU FAM211A (11726209_a_at) / Fold change /veh FAM211A (11726209_a_at) / RFU RGS16 (11746705_a_at) / Fold change /veh RGS16 (11746705_a_at) / RFU VCAN (11755009_s_at) / Fold change /veh VCAN (11755009_s_at) / RFU RHOB (11743442_s_at) / Fold change /veh RHOB (11743442_s_at) / RFU RGS16 (11720943_a_at) / Fold change /veh RGS16 (11720943_a_at) / RFU RGS16 (11720944_at) / Fold change /veh RGS16 (11720944_at) / RFU, VPS4B / Fold change vs veh, VPS4B / RFU, CREB1 / Fold change vs veh, CREB1 / RFU, DNAJC13 / Fold change vs veh, DNAJC13 / RFU, GNAQ / Fold change vs veh, GNAQ / RFU, CDK5R1 / Fold change vs veh, CDK5R1 / RFU, ZRANB3 / Fold change vs veh, ZRANB3 / RFU, CUL4A / Fold change vs veh, CUL4A / RFU, CCNY / Fold change vs veh, CCNY / RFU, UFL1 / Fold change vs veh, UFL1 / RFU, COG3 / Fold change vs veh, COG3 / RFU, DIAPH2 / Fold change vs veh, DIAPH2 / RFU, SKA2 / Fold change vs veh, SKA2 / RFU, AFF3 / Fold change vs veh, AFF3 / RFU, LMF1 / Fold change vs veh, LMF1 / RFU, IPO11 / Fold change vs veh, IPO11 / RFU, DFFB / Fold change vs veh, DFFB / RFU, FOXP1 / Fold change vs veh, FOXP1 / RFU, CARD8 / Fold change vs veh, CARD8 / RFU, STRN3 / Fold change vs veh, STRN3 / RFU, ADK / Fold change vs veh, ADK / RFU, RASSF2 / Fold change vs veh, RASSF2 / RFU, WIPF1 / Fold change vs veh, WIPF1 / RFU, LARP1B / Fold change vs veh, LARP1B / RFU, RASA1 / Fold change vs veh, RASA1 / RFU, RB1 / Fold change vs veh, RB1 / RFU, PPFIA1 / Fold change vs veh, PPFIA1 / RFU, MAT2A / Fold change vs veh, MAT2A / RFU, CCT5 / Fold change vs veh, CCT5 / RFU, WDR92 / Fold change vs veh, WDR92 / RFU, CUX1 / Fold change vs veh, CUX1 / RFU, TTC7A / Fold change vs veh, TTC7A / RFU, TMEM135 / Fold change vs veh, TMEM135 / RFU, DEPTOR / Fold change vs veh, DEPTOR / RFU, CPM / Fold change vs veh, CPM / RFU, DNAJB6 / Fold change vs veh, DNAJB6 / RFU, CACNA2D3 / Fold change vs veh, CACNA2D3 / RFU, DTX4 / Fold change vs veh, DTX4 / RFU, TFCP2 / Fold change vs veh, TFCP2 / RFU, GMCL1 /// GMCL1P1 / Fold change vs veh, GMCL1 /// GMCL1P1 / RFU, AEBP2 / Fold change vs veh, AEBP2 / RFU, SNHG1 /// SNORD22 /// SNORD25 /// SNORD26 /// SNORD27 /// SNORD28 /// SNORD29 /// SNORD31 / Fold change vs veh, SNHG1 /// SNORD22 /// SNORD25 /// SNORD26 /// SNORD27 /// SNORD28 /// SNORD29 /// SNORD31 / Fold change (Aza/veh), C12orf56 (ProbeSet 11735607_a_at) / Fold change (ACY-1035/veh), C12orf56 (ProbeSet 11735607_a_at) / Fold change (Aza/veh), FGFR1OP (ProbeSet 11751329_s_at) / Fold change (ACY-1035/veh), FGFR1OP (ProbeSet 11751329_s_at) / Fold change (Aza/veh), VPS36 (ProbeSet 11739960_a_at) / Fold change (ACY-1035/veh), VPS36 (ProbeSet 11739960_a_at) / RFU SYPL1 (11715823_x_at) / Fold change /veh SYPL1 (11715823_x_at) / RFU IGFBP7 (11715501_s_at) / Fold change /veh IGFBP7 (11715501_s_at) / RFU REEP3 (11722064_at) / Fold change /veh REEP3 (11722064_at) / RFU IGLL1 (11728026_x_at) / Fold change /veh IGLL1 (11728026_x_at): dose or concentration left out as unconfirmed
Settings: MV-4-11 cells, 48 hours

## Nc1ncn([C@@H]2O[C@H](CO)[C@@H](O)[C@H]2O)c(=O)n1 [azacitidine]
  RFU JSRP1 (11732532_at): 47.93 RFU
